Blank lines part the entries; values can stand above or below the molecule they belong to.
Key:
[1] = Microsomal stability in rat liver microsomes assessed as half life; type: ADME, Microsome
[2] = Microsomal stability in human liver microsomes assessed as half life; type: ADME, Microsome
[3] = target: T1, Nuclear receptor ROR-gamma (Homo sapiens, UniProt P51449); experiment: Antagonist activity at N-terminal GST tagged human RORgamma LBD using fluorescein-D22 as coactivator incubated for 60 mins by Lanthascreen TR-FRET assay
T1 sequence (P51449 whole entry): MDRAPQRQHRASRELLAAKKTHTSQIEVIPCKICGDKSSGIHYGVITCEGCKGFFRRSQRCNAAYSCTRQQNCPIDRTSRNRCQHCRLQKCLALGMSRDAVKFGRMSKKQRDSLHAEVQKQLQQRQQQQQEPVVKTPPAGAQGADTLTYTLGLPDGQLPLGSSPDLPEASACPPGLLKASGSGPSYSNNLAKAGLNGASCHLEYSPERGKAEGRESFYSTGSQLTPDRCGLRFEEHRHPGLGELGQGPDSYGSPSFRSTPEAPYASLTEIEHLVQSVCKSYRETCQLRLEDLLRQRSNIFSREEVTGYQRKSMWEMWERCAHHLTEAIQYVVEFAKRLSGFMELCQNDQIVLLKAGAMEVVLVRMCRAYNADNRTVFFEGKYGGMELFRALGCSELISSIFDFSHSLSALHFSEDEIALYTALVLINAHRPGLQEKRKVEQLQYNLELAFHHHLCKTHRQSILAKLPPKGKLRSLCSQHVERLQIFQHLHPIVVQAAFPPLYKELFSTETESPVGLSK

[4] = target: T1, Nuclear receptor ROR-gamma; experiment: Antagonist activity at human RORgamma in cytostim stimulated human PBMC cells assessed as decrease in differentiation of TH17 cells by measuring IL-17 production preincubated with cytostim for 72 hrs by ELISA; type: cell-based
[5] = target: T2, Nuclear receptor ROR-gamma (Homo sapiens) (UniProt P51449); experiment: Inverse agonist activity at human RORgamma in cytostim stimulated human PBMC cells assessed as […] in IL-17 production by measuring maximal efficacy preincubated with cytostim for 72 hrs by ELISA relative to control; type: cell-based; settings: filed as inverse agonist
T2 sequence (whole entry): T1 sequence (P51449 whole entry)

[6] = Half life in dog at 2 mg/kg, po; type: ADME, organism-based, Canis lupus familiaris; settings: in vivo
[7] = Clearance in dog at 0.5 mg/kg, iv; type: ADME, organism-based, Canis lupus familiaris; settings: in vivo
[8] = Half life in mouse at 2 mg/kg, po; type: ADME, organism-based; settings: in vivo
[9] = Cmax in mouse at 2 mg/kg, po; type: ADME, organism-based; design: dose 2 mg/kg, route po; settings: in vivo
[10] = Drug metabolism in rat plasma assessed as amide hydrolysis metabolite formation at 1 mg/kg, iv; type: ADME, organism-based; settings: in vivo
[11] = AUC (0 to t) in rat at 2 mg/kg, po; type: ADME, organism-based; design: dose 2 mg/kg, route po; settings: in vivo
[12] = Half life in dog at 0.5 mg/kg, iv; type: ADME, organism-based, Canis lupus familiaris; settings: in vivo
[13] = Drug metabolism in dog liver microsomes assessed as amide hydrolysis metabolite formation at 1 mg/kg, iv; type: ADME, Canis lupus familiaris, Microsome
[14] = Volume of distribution in mouse at 2 mg/kg, po; type: ADME, organism-based; settings: in vivo
[15] = AUC (0 to t) in mouse at 2 mg/kg, po; type: ADME, organism-based; design: dose 2 mg/kg, route po; settings: in vivo
[16] = Volume of distribution in rat at 1 mg/kg, iv; type: ADME, organism-based; settings: in vivo
[17] = Volume of distribution in dog at 2 mg/kg, po; type: ADME, organism-based, Canis lupus familiaris; settings: in vivo
[18] = AUC (0 to t) in dog at 2 mg/kg, po; type: ADME, organism-based, Canis lupus familiaris; design: dose 2 mg/kg, route po; settings: in vivo
[19] = Half life in rat at 1 mg/kg, iv; type: ADME, organism-based; settings: in vivo
[20] = Drug metabolism in dog plasma assessed as amide hydrolysis metabolite formation at 1 mg/kg, iv; type: ADME, organism-based, Canis lupus familiaris; settings: in vivo
[21] = Cmax in rat at 2 mg/kg, po; type: ADME, organism-based; design: dose 2 mg/kg, route po; settings: in vivo
[22] = Half life in mouse at 1 mg/kg, iv; type: ADME, organism-based; settings: in vivo
[23] = Drug metabolism in rat liver microsomes assessed as amide hydrolysis metabolite formation at 1 mg/kg, iv; type: ADME, Microsome
[24] = Cmax in dog at 2 mg/kg, po; type: ADME, organism-based, Canis lupus familiaris; design: dose 2 mg/kg, route po; settings: in vivo
[25] = AUC (0 to t) in mouse at 1 mg/kg, iv; type: ADME, organism-based; design: dose 1 mg/kg, route iv; settings: in vivo
[26] = Volume of distribution in dog at 0.5 mg/kg, iv; type: ADME, organism-based, Canis lupus familiaris; settings: in vivo
[27] = Oral bioavailability in mouse; type: ADME, organism-based; settings: in vivo
[28] = target: T1, Nuclear receptor ROR-gamma; experiment: Agonist activity at N-terminal GST tagged human RORgamma LBD using fluorescein-D22 as coactivator incubated for 60 mins by Lanthascreen TR-FRET assay
[29] = AUC (0 to t) in rat at 1 mg/kg, iv; type: ADME, organism-based; design: dose 1 mg/kg, route iv; settings: in vivo
[30] = Oral bioavailability in rat; type: ADME, organism-based; settings: in vivo
[31] = AUC (0 to t) in dog at 0.5 mg/kg, iv; type: ADME, organism-based, Canis lupus familiaris; design: dose 0.5 mg/kg, route iv; settings: in vivo
[32] = Oral bioavailability in dog; type: ADME, organism-based, Canis lupus familiaris; settings: in vivo
[33] = Clearance in mouse at 1 mg/kg, iv; type: ADME, organism-based; settings: in vivo
[34] = Volume of distribution in mouse at 1 mg/kg, iv; type: ADME, organism-based; settings: in vivo, read-out: Vd
[35] = Clearance in rat at 1 mg/kg, iv; type: ADME, organism-based; settings: in vivo
[36] = target: T1, Nuclear receptor ROR-gamma; experiment: Agonist activity at human RORgamma in cytostim stimulated human PBMC cells assessed as increase in differentiation of TH17 cells by measuring IL-17 production preincubated with cytostim for 72 hrs by ELISA; type: cell-based

half-life [1]: 43 min | half-life [2]: 39 min
Compound: CCS(=O)(=O)c1ccc(CNC(=O)c2ccc3c(c2)cc(Cc2ccccc2C(F)(F)F)n3C(C)C)cc1

half-life [1]: 19 min | half-life [2]: 20 min | EC50 [3]: 10 nM | EC50 [4]: 19 nM | Emax [5]: 93%
Compound: CCS(=O)(=O)c1ccc(CNC(=O)c2ccc3c(c2)cc(Cc2cccc(C(F)(F)F)c2)n3C(C)C)cc1

half-life [6]: 128 min | half-life [1]: 126 min | clearance [7]: 27.2 mL/min/kg | half-life [8]: 223 min | Cmax [9]: 3270 ng/mL | Drug metabolism [10]: Metabolite_Detected | AUC(0-t) [11]: 3.73 ng·h/mL | half-life [12]: 52.6 min | Drug metabolism [13]: Metabolite_Detected | half-life [2]: 173 min | Vd [14]: 0.569 L/kg | AUC(0-t) [15]: 18900 ng·h/mL | Vd [16]: 4.48 L/kg | Vd [17]: 73.7 L/kg | AUC(0-t) [18]: 103 ng·h/mL | half-life [19]: 51.6 min | Drug metabolism [20]: Metabolite_Detected | Cmax [21]: 6.4 ng/mL | half-life [22]: 160 min | Drug metabolism [23]: Metabolite_Detected | Cmax [24]: 55.9 ng/mL | AUC(0-t) [25]: 20000 ng·h/mL | Vd [26]: 2.05 L/kg | bioavailability [27]: 47.3% | EC50 [28]: 2 nM | AUC(0-t) [29]: 277 ng·h/mL | bioavailability [30]: 0.673% | AUC(0-t) [31]: 309 ng·h/mL | bioavailability [32]: 8.33% | clearance [33]: 0.834 mL/min/kg | Vd [34]: 0.193 L/kg | clearance [35]: 60.2 mL/min/kg | EC50 [36]: 2 nM
Compound: CCS(=O)(=O)c1ccc(CNC(=O)c2ccc3c(c2)cc(Cc2ccc(Cl)cc2C(F)(F)F)n3CCF)cc1
